Results published in patent publication US10899758B2, “Inhibitors of the menin-MLL interaction” (Vitae Pharmaceuticals, LLC, priority 2016, dated 2021).

Molecular target: T1, menin/MLL binding (biotinylated wild-type or mutated menin and MLL-AF9 fusion protein) (Homo sapiens, UniProt O00255)
T1 construct: biotinylated (1) wild-type menin or (2) mutated menin (described in Nature (2012) Vol. 482, pp. 542-548); fused on or other part: Biotin attached chemically (Sulfo-NHS-Biotin); no fused second protein is printed for menin
T1 sequence (O00255 1-459 limits assumed): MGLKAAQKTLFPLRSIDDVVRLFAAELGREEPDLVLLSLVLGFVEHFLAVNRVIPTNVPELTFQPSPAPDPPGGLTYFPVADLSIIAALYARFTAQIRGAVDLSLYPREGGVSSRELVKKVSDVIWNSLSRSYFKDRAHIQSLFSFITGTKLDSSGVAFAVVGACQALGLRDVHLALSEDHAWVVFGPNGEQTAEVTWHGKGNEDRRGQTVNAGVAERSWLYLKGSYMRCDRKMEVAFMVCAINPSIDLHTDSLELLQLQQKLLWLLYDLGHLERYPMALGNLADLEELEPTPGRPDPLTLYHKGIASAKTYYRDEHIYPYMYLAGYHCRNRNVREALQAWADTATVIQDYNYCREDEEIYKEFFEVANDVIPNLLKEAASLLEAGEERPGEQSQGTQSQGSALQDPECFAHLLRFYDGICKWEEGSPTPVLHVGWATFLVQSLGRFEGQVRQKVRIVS
Assay: Assay 1 (Binding Assay): AlphaLISA menin/MLL binding
Conditions: 5 nM biotinylated menin, MLL-AF9-FLAG lysate
Procedure: Potencies of inhibitor compounds against menin/MLL binding were assessed by AlphaLISA assay using biotinylated (1) wild-type menin or (2) mutated menin (described in Nature (2012) Vol. 482, pp. 542-548) and MLL-AF9 fusion protein bearing a FLAG epitope at its C-terminus. Menin proteins were expressed in E. coli and covalently modified with biotin using EZ-Link™ Sulfo-NHS-Biotin (ThermoFisher Cat. No. 21217) according to manufacturer's protocol. MLL1-1,396 fused to AF91-92 and the C-terminal FLAG peptide was expressed in HEK293 cells and used as a lysate cleared at 21,000×g for 10 min.
Compounds (2 μL of solutions in DMSO) were dispensed in white 96-well half-area plates (Corning Cat. No. 3693) and incubated for 30 min at RT with 5 nM biotinylated menin and appropriate amount of MLL-AF9-FLAG lysate in 40 μL of 50 mM Tris-HCl buffer pH 7.4 containing 5% (v/v) DMSO, 50 mM NaCl, 0.01% (w/v) bovine serum albumin (BSA) and 1 mM DTT. To this incubation mixture, 40 μl of AlphaLISA anti-FLAG acceptor (PerkinElmer Cat. No. AL112C) and streptavidin donor (PerkinElmer Cat. No. 6760002) beads (10 μg/mL each) was added and incubation continued at RT for 60 min. Alpha (amplified luminescent proximity homogeneous assay) signal was measured on an Envision multi-label plate reader at the end of the incubation. All steps were conducted under dim fluorescent light.
These percent inhibition values were regressed against compound concentrations in the assay using four parameter logit non-linear curve fitting (XLFit, IDBS). The IC50 values were derived from the curve fitting as inflection points on the dose-response curves and are set out in Table 14 below.

Structure (SMILES) | IC50 [nM]
Cc1c(CN2CCC(c3cn(-c4ccc(F)cc4)c4cncnc34)CC2)ccc2[nH]c(C#N)cc12 [Example 66, 5-((4-(5-(4-fluorophenyl)-5H-pyrrolo[3,2-d]pyrimidin-7-yl)piperidin-1-yl)methyl)-4-methyl-1H-indole-2-carbonitrile] | 100 to 1000
O=c1[nH]c2ccc(CN3CCC(c4cn(-c5ccc(F)cc5)c5cncnc45)CC3)cc2[nH]1 [Example 67, 5-((4-(5-(4-fluorophenyl)-5H-pyrrolo[3,2-d]pyrimidin-7-yl)piperidin-1-yl)methyl)-1H-benzo[d]imidazol-2(3H)-one] | ≥ 1000
Fc1ccc(-n2cc(C3CCN(Cc4ccc5cc[nH]c5c4)CC3)c3ncncc32)cc1 [Example 68, 7-(1-((1H-indol-6-yl)methyl)piperidin-4-yl)-5-(4-fluorophenyl)-5H-pyrrolo[3,2-d]pyrimidine] | ≥ 1000
Fc1ccc(-n2cc(C3CCN(Cc4ccc5[nH]ccc5c4)CC3)c3ncncc32)cc1 [Example 69, 7-(1-((1H-indol-5-yl)methyl)piperidin-4-yl)-5-(4-fluorophenyl)-5H-pyrrolo[3,2-d]pyrimidine] | 100 to 1000
Cc1cc(F)ccc1-n1cc(C2CCN(Cc3ccc4[nH]c(C#N)cc4c3C)CC2)c2ncncc21 [Example 70, 5-((4-(5-(4-fluoro-2-methylphenyl)-5H-pyrrolo[3,2-d]pyrimidin-7-yl)piperidin-1-yl)methyl)-4-methyl-1H-indole-2-carbonitrile] | 100 to 1000
Cc1c(CN2CCC(c3cn(-c4cccc(F)c4)c4cncnc34)CC2)ccc2[nH]c(C#N)cc12 [Example 71, 5-((4-(5-(3-fluorophenyl)-5H-pyrrolo[3,2-d]pyrimidin-7-yl)piperidin-1-yl)methyl)-4-methyl-1H-indole-2-carbonitrile] | ≥ 1000
Cc1c(CN2CCC(c3cn(-c4ccccc4)c4cncnc34)CC2)ccc2[nH]c(C#N)cc12 [Example 72, 4-methyl-5-((4-(5-phenyl-5H-pyrrolo[3,2-d]pyrimidin-7-yl)piperidin-1-yl)methyl)-1H-indole-2-carbonitrile] | ≥ 1000
O=c1[nH]c2ccc(CN3CCC(c4cn(-c5ccccc5)c5cncnc45)CC3)cc2[nH]1 [Example 73, 5-((4-(5-phenyl-5H-pyrrolo[3,2-d]pyrimidin-7-yl)piperidin-1-yl)methyl)-1H-benzo[d]imidazol-2(3H)-one] | ≥ 1000
CC(C)N(C)C(=O)c1cc(F)ccc1-n1c(=O)n(C2CCN(Cc3ccc4[nH]c(=O)[nH]c4c3)CC2)c2ccncc21 [Example 79, 5-fluoro-N-isopropyl-N-methyl-2-(2-oxo-1-(1-((2-oxo-2,3-dihydro-1H-benzo[d]imidazol-5-yl)methyl)piperidin-4-yl)-1,2-dihydro-3H-imidazo[4,5-c]pyridin-3-yl)benzamide] | ≥ 1000
CC(C)N(C)C(=O)c1cc(F)ccc1-n1c(=O)n(C2CCN(CC3CCCCC3)CC2)c2ccncc21 [Example 81, 2-(1-(1-(cyclohexylmethyl)piperidin-4-yl)-2-oxo-1,2-dihydro-3H-imidazo[4,5-c]pyridin-3-yl)-5-fluoro-N-isopropyl-N-methylbenzamide] | < 100
CC(C)N(C)C(=O)c1cc(F)ccc1-n1c(=O)n(C2CCN(Cc3ccc(F)cc3)CC2)c2ccncc21 [Example 83, 5-fluoro-2-(1-(1-(4-fluorobenzyl)piperidin-4-yl)-2-oxo-1,2-dihydro-3H-imidazo[4,5-c]pyridin-3-yl)-N-isopropyl-N-methylbenzamide] | 100 to 1000
CC(C)N(C)C(=O)c1cc(F)ccc1-n1cc(C2CC3CN(C[C@H]4C[C@H](NS(C)(=O)=O)C4)CC3C2)c2ccncc21 (stereo partly drawn) [Example 89, 5-fluoro-N-isopropyl-N-methyl-2-(3-(2-((trans-3-(methylsulfonamido)cyclobutyl)methyl)octahydrocyclopenta[c]pyrrol-5-yl)-1H-pyrrolo[2,3-c]pyridin-1-yl)benzamide] | < 100
CC(C)N(C)C(=O)c1cc(F)ccc1-n1cc(C2CCN(c3ccccn3)CC2)c2ccncc21 [Example 94, 5-fluoro-N-isopropyl-N-methyl-2-(3-(1-(pyridin-2-yl)piperidin-4-yl)-1H-pyrrolo[2,3-c]pyridin-1-yl)benzamide] | < 100
CC(C)N(C)C(=O)c1cc(F)ccc1-n1cc([C@H]2CC[C@@H](N3CCC[C@H]3CO)CC2)c2ccncc21 [Example 97, 5-fluoro-2-(3-(cis-4-((S)-2-(hydroxymethyl)pyrrolidin-1-yl)cyclohexyl)-1H-pyrrolo[2,3-c]pyridin-1-yl)-N-isopropyl-N-methylbenzamide] | < 100
CC(C)N(C)C(=O)c1cc(F)ccc1-n1cc([C@H]2CC[C@H](N3CC(CO)C3)CC2)c2ccncc21 [Example 98, 5-fluoro-2-(3-(trans-4-(3-(hydroxymethyl)azetidin-1-yl)cyclohexyl)-1H-pyrrolo[2,3-c]pyridin-1-yl)-N-isopropyl-N-methylbenzamide] | < 100

Second part, the compound after the results:

IC50 [nM] | Structure (SMILES)
100 to 1000 | CC(C)N(C)C(=O)c1cc(F)ccc1-n1cc([C@H]2CC[C@@H](N3CC(CO)C3)CC2)c2ccncc21 [Example 99, 5-fluoro-2-(3-(cis-4-(3-(hydroxymethyl)azetidin-1-yl)cyclohexyl)-1H-pyrrolo[2,3-c]pyridin-1-yl)-N-isopropyl-N-methylbenzamide]
< 100 | CC(C)N(C)C(=O)c1cc(F)ccc1-n1cc([C@H]2CC[C@@H](N3CCC[C@@H]3CO)CC2)c2ccncc21 [Example 101, 5-fluoro-2-(3-(cis-4-((R)-2-(hydroxymethyl)pyrrolidin-1-yl)cyclohexyl)-1H-pyrrolo [2,3-c]pyridin-1-yl)-N-isopropyl-N-methylbenzamide]
< 100 | CC(C)N(C)C(=O)c1cc(F)ccc1-n1cc([C@H]2CC[C@H](N3CC[C@@H](CO)C3)CC2)c2ccncc21 [Example 102, 5-fluoro-2-(3-(trans-4-((R)-3-(hydroxymethyl)pyrrolidin-1-yl)cyclohexyl)-1H-pyrrolo [2,3-c]pyridin-1-yl)-N-isopropyl-N-methylbenzamide]
< 100 | CC(C)N(C)C(=O)c1cc(F)ccc1-n1cc([C@H]2CC[C@@H](N3CC[C@@H](CO)C3)CC2)c2ccncc21 [Example 103, 5-fluoro-2-(3-(cis-4-((R)-3-(hydroxymethyl)pyrrolidin-1-yl)cyclohexyl)-1H-pyrrolo[2,3-c]pyridin-1-yl)-N-isopropyl-N-methylbenzamide]
100 to 1000 | CC(C)N(C)C(=O)c1cc(F)ccc1-n1cc([C@H]2CC[C@@H](N3CC[C@H](CO)C3)CC2)c2ccncc21 [Example 105, 5-fluoro-2-(3-(cis-4-((S)-3-(hydroxymethyl)pyrrolidin-1-yl)cyclohexyl)-1H-pyrrolo[2,3-c]pyridin-1-yl)-N-isopropyl-N-methylbenzamide]
< 100 | CC(C)N(C)C(=O)c1cc(F)ccc1-n1cc([C@H]2CC[C@@H](N3CCCCC3)CC2)c2ccncc21 [Example 107]
100 to 1000 | CC(C)N(C)C(=O)c1cc(F)ccc1-n1cc([C@H]2CC[C@H](N3CCC(O)CC3)CC2)c2ccncc21 [Example 108, 5-fluoro-2-(3-(trans-4-(4-hydroxypiperidin-1-yl)cyclohexyl)-1H-pyrrolo[2,3-c]pyridin-1-yl)-N-isopropyl-N-methylbenzamide]
100 to 1000 | CC(C)N(C)C(=O)c1cc(F)ccc1-n1cc([C@H]2CC[C@@H](N3CCC(F)(F)CC3)CC2)c2ccncc21 [Example 111, 2-(3-(cis-4-(4,4-difluoropiperidin-1-yl)cyclohexyl)-1H-pyrrolo[2,3-c]pyridin-1-yl)-5-fluoro-N-isopropyl-N-methylbenzamide]
< 100 | CC(C)N(C)C(=O)c1cc(F)ccc1-n1cc([C@H]2CC[C@H](N3CCN(CCO)CC3)CC2)c2ccncc21 [Example 114, 5-fluoro-2-(3-(trans-4-(4-(2-hydroxyethyl)piperazin-1-yl)cyclohexyl)-1H-pyrrolo[2,3-c]pyridin-1-yl)-N-isopropyl-N-methylbenzamide]
100 to 1000 | CC(C)N(C)C(=O)c1cc(F)ccc1-n1cc([C@H]2CC[C@@H](N3CCN(CCO)CC3)CC2)c2ccncc21 [Example 115, 5-fluoro-2-(3-(cis-4-(4-(2-hydroxyethyl)piperazin-1-yl)cyclohexyl)-1H-pyrrolo[2,3-c]pyridin-1-yl)-N-isopropyl-N-methylbenzamide]
